Measured values from patent publication US20220251079A1, “BENZO[B][1,8]NAPHTHYRIDINE ACETIC ACID DERIVATIVES AND METHODS OF USE” (STINGTHERA, INC., priority 2019, published 2022).

Legend:
[1] = molecular target: T1, human STING protein (140-379) (Homo sapiens, UniProt Q86WV6, H232R); experiment: Radiometric filtration binding competition assay (WT_FBA_HIS-SUMO-hSWAT); settings: read-out: WT-hSWAT IC50
T1 construct: 6XHIS-SUMO-hSTING (140-379); made in house; host or cells: BL-21(DE3) E. coli, pET vector
T1 sequence (Q86WV6 140-379 H232R): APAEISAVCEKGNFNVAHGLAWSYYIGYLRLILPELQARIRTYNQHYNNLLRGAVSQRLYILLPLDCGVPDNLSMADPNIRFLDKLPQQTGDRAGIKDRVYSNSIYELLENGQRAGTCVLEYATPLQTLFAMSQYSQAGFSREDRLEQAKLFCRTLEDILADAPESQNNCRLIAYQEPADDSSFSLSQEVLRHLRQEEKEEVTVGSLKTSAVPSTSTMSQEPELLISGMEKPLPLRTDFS
Procedure: A radiometric filtration binding competition assay was performed to quantify the binding affinity of compounds of the present application for the human or mouse STING protein, or associated HAQ human isoform. The competition format filtration binding assay detects the ability of small molecule compounds from binding to and inhibiting the subsequent binding of a tritiated [H3] […] The resulting dose response was fit by non-linear regression to determine an IC50 value, from which a Ki value for each compound was extrapolated.
Briefly, the recombinant C-terminal ligand binding domain of the human STING protein (140-379) or mouse STING protein (139-328) [0.5 μM] was incubated in the presence of a compound of the present application (8 point, 2 fold dilution starting at 300 μM) for 30 min or under control conditions. […] The resulting complexes were then filtered, dried, and scintillation fluid was added and the remaining radio signal was measured to determine the degree of compound ligand inhibition. This assay format was optimized for both the WT and HAQ isoforms of the human protein and the mouse orthologue protein.
Parameters optimized: • a. Form of protein: 6×HIS-SUMO tag or untagged • b. Concentration of target protein: Minimum concentration that achieved >80 max signal • c. Assay DMSO concentration: 10%-0.1% • d. Assay Buffer: Base (Tris or phosphate), Salt concentration, +/−Tween (0.1-2%) • e. […] Probe Concentration: Minimum concentration that achieved max assay window • g. Assay Format: Scintillation Proximity Bead or Filtration Binding Plate • h. Assay Plate: 384 vs 96 well format • i. Assay incubation times for successive incubation steps
WT-hSWAT: WT_FBA_HIS-SUMO-hSWAT IC50 (μM) (“WT”=Wild-type); and WT-mSWAT: MOUSE_FBA_HIS-SUMO-mSWAT C50 (μM) which is the mouse isoform of STING protein.

hSTING-R232 = molecular target: T2, hSTING-R232 (Homo sapiens, UniProt Q86WV6, H232R); experiment: STING Differential Scanning Fluorimetry (DSF) assay, human; type: binding; settings: human STING R232-WT, 5 μM protein
T2 construct: recombinant mouse or human STING protein (aa140-379); 6xHis-SUMO elsewhere) (cleaved yes); made in house
T2 sequence (Q86WV6 140-379 H232R): as above
Procedure: A STING DSF assay was performed to determine protein thermostability shift in response to small molecule ligand binding. A STING thermostability shift assay based on differential scanning fluorimetry was used to measure (1) the net shift in melting temperature (ΔTm)between the apo and ligand-bound states of the STING protein and (2) the concentration of the thermal denaturation transition (FC50) as a surrogate measure of binding affinity (Kd). Briefly, recombinant mouse or human STING protein (aa140-379) comprising the C-terminal binding domain (R232-WT) were purified by affinity chromatography and further processed to remove the purification tag, followed by gel filtration to achieve purity >95%. Protein in assay buffer was transferred to a 384 well plate and incubated with the hydrophobic fluorescent dye SYBR Orange. A temperature ramp was applied to the plate and the resulting dye fluorescence was plotted as a function of temperature. The first derivative of this function (dF/dT) was then used to extrapolate the melting temperature of the protein at various concentrations of compound and determine the thermal denaturation profile of a protein/compound complex.
2. 5 μM purified Target STING Protein
4. Buffer: 100 mM NaCl, 30 mM HEPES, pH 7.5
5. Thermal Ramp: 0.5° C./min
7. 11 point, 2 fold dilution, duplicate, 300 μM high concentrations

STING protein = molecular target: T3, STING protein (Homo sapiens, UniProt Q86WV6, H232R); experiment: Cell based reporter assay of IRF activation (THP1-dual-KI R232, IRF luciferase); settings: THP-1; read-out: THP1-dual-KI R232_IRF(Luciferase)_Activity Maximum measured (%)
T3 construct: host or cells: THP-1 dual reporter cells, TMEM173 modified from HAQ to R232 (THP1-dual-KI R232)
T3 sequence (Q86WV6 whole entry H232R): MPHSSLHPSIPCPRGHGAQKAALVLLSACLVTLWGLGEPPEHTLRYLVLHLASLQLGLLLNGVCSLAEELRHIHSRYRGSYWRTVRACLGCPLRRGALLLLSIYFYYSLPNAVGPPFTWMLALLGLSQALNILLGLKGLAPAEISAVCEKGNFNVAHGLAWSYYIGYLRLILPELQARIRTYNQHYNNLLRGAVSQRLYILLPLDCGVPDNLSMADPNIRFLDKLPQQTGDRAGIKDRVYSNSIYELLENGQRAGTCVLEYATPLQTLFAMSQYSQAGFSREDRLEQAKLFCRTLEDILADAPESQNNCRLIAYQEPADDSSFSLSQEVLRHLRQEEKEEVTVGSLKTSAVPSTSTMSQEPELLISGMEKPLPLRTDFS
Description: Cell reporter assays were developed to measure the ability of compounds of the application to activate the STING protein and activate both IRF/IFN and the NFkB signaling pathways in the myeloid derived cell line THP-1, which is commercially available from several suppliers. Briefly, THP-1 monocytes were transfected and selected for stable integration of 2 reporter constructs. Clones incorporating stably integrated vectors were further selected by antibiotic resistance to blastocidin and zeocin. The reporter constructs included: (1) firefly luciferase reporter gene under the control of an ISG54 promoter fused to five interferon (IFN)-stimulated response elements to measure IRF transcription factor binding activity and (2) secreted embryonic alkaline phosphatase reporter gene under transcription control of an IFN-beta minimal promoter fused to 5 copies of the NFkB consensus transcriptional response element and 3 copies of the c-Rel binding site.
The resulting THP-1 cell line was further modified to incorporate 3 amino acid point mutations (H71R A230G Q293R). This modification of the native TMEM173 gene in THP-1 cells (HAQ) was designed to produce a cell reporter that expressed the most common allelic variant in the human population (THP-1 R232, available from InvivoGen). Alternatively, the TMEM173 gene was knocked out to provide a congenic control to counter-screen for compound activation that was independent of the STING protein (THP-1 STING KO).
Once cell lines were established, reporter assay protocols were developed and optimized to screen small molecule compounds for agonist activity. Assay optimization for efficacy and Z′ value included titration of the following parameters:
1. No pre-activation with PMA
2. […]cells/well in 96 well plate format
7. Cell Titer Glo reagent (Promega) following supermatant removal
9. 8 point, 2 fold, duplicate starting at 150 μM PP28T

Row | IC50 [1] [µM] | WT_DSF_hSWAT Tm Shift (° C.) (hSTING-R232) | Emax (STING protein) [%] | SMILES
1 | 20 to 100 | D (“D” > 7° C.) | 25 to 50 | CSc1c(Cl)ccc2c(=O)c3ccc(N(C)CCS(C)(=O)=O)nc3n(CC(=O)O)c12 [Compound 34, Sodium 2-{8-chloro-2-[(2-methanesulfonylethyl)(methyl)amino]-9-(methylsulfanyl)-5-oxobenzo[b]1,8-naphthyridin-10-yl}acetate]
2 | 20 to 100 | D (“D” > 7° C.) | > 50 | CSc1c(Cl)ccc2c(=O)c3ccc(N(C)CCS(=O)(=O)C(C)C)nc3n(CC(=O)O)c12 [Compound 35, sodium 2-(8-chloro-2-{methyl[2-(propane-2-sulfonyl)ethyl]amino}-9-(methylsulfanyl)-5-oxobenzo[b]1,8-naphthyridin-10-yl)acetate]
3 | 20 to 100 | D (“D” > 7° C.) | > 50 | CSc1c(Cl)ccc2c(=O)c3ccc(N(C)CC4CC(F)(F)C4)nc3n(CC(=O)O)c12 [Compound 36, Sodium 2-(8-chloro-2-(((3,3-difluorocyclobutyl)methyl)(methyl)amino)-9-(methylthio)-5-oxobenzo[b][1,8]naphthyridin-10(5H)-yl)acetate]
4 | 20 to 100 | D (“D” > 7° C.) | > 50 | CSc1c(Cl)ccc2c(=O)c3ccc(N(CC4CC4)CC4CC(F)(F)C4)nc3n(CC(=O)O)c12 [Compound 37, sodium 2-(8-chloro-2-((Cyclopropylmethyl)((3,3-difluorocyclobutyl)methyl)amino)-9-(methylthio)-5-oxobenzo[b][1,8]naphthyridin-10(5H)-yl)acetate]
5 | 20 to 100 | D (“D” > 7° C.) | > 50 | CSc1c(Cl)ccc2c(=O)c3ccc(N(CC4CC4)CC4COC4)nc3n(CC(=O)O)c12 [Compound 38, sodium 2-(8-chloro-2-((cyclopropylmethyl)(oxetan-3-ylmethyl)amino)-9-(methylthio)-5-oxobenzo[b][1,8]naphthyridin-10(5H)-yl)acetate]
6 | 20 to 100 | D (“D” > 7° C.) | > 50 | COC1CC(CN(C)c2ccc3c(=O)c4ccc(Cl)c(SC)c4n(CC(=O)O)c3n2)C1 (stereo not drawn) [Compound 39, Sodium 2-(8-chloro-2-(((3-methoxycyclobutyl)methyl)(methyl)amino)-9-(methylthio)-5-oxobenzo[b][1,8]naphthyridin-10(5H)-yl)acetate]
7 | 20 to 100 | D (“D” > 7° C.) | > 50 | COC1CC(CN(CC2CC2)c2ccc3c(=O)c4ccc(Cl)c(SC)c4n(CC(=O)O)c3n2)C1 (stereo not drawn) [Compound 40, sodium 2-(8-chloro-2-((cyclopropylmethyl)((3-methoxycyclobutyl)methyl)amino)-9-(methylthio)-5-oxobenzo[b][1,8]naphthyridin-10(5H)-yl)acetate]

Continued, compound first:

Row | SMILES | IC50 [1] [µM] | WT_DSF_hSWAT Tm Shift (° C.) (hSTING-R232) | Emax (STING protein) [%]
8 | CSc1c(Cl)ccc2c(=O)c3ccc(C(C)(C)C#N)nc3n(CC(=O)O)c12 [Compound 24, sodium 2-(8-chloro-2-(2-cyanopropan-2-yl)-9-(methylthio)-5-oxobenzo[b][1,8]naphthyridin-10(5H)-yl)acetate] | 20 to 100 | D (“D” > 7° C.) | > 50
9 | CCOc1c(Cl)ccc2c(=O)c3ccc(C(C)(C)C#N)nc3n(CC(=O)O)c12 [Compound 25, sodium 2-(8-chloro-2-(2-cyanopropan-2-yl)-9-ethoxy-5-oxobenzo[b][1,8]naphthyridin-10(5H)-yl)acetate] | 20 to 100 | D (“D” > 7° C.) | > 50
10 | CN(C)c1c(Cl)ccc2c(=O)c3ccc(N(C)CC4CC(F)(F)C4)nc3n(CC(=O)O)c12 [Compound 26, sodium 2-(8-chloro-2-(((3,3-difluorocyclobutyl)methyl) (methyl)amino)-9-(dimethylamino)-5-oxobenzo[b][1,8]naphthyridin-10(5H)-yl)acetate] | < 20 | D (“D” > 7° C.) | > 50
11 | CSc1c(Cl)ccc2c(=O)c3ccc(N(C)CC4CCOCC4)nc3n(CC(=O)O)c12 [Compound 27, 2-(8-chloro-2-(methyl((tetrahydro-2H-pyran-4-yl)methyl)amino)-9-(methylthio)-5-oxobenzo[b][1,8]naphthyridin-10(5H)-yl)acetic acid] | 20 to 100 | D (“D” > 7° C.) | > 50
12 | COCCN(c1ccc2c(=O)c3ccc(Cl)c(SC)c3n(CC(=O)O)c2n1)C1CC1 [Compound 28, sodium 2-(8-chloro-2-(cyclopropyl(2-methoxyethyl)amino)-9-(methylthio)-5-oxobenzo[b][1,8]naphthyridin-10(5H)-yl)acetate] | < 20 | D (“D” > 7° C.) | > 50
13 | CCOc1c(Cl)ccc2c(=O)c3ccc(N(CCOC)C4CC4)nc3n(CC(=O)O)c12 [Compound 29, sodium 2-(8-chloro-2-(cyclopropyl(2-methoxyethyl)amino)-9-ethoxy-5-oxobenzo[b][1,8]naphthyridin-10(5H)-yl)acetate] | 20 to 100 | D (“D” > 7° C.) | > 50
14 | CCN(c1ccc2c(=O)c3ccc(Cl)c(SC)c3n(CC(=O)O)c2n1)C1COC1 [Compound 30, sodium 2-(8-chloro-2-(ethyl(oxetan-3-yl)amino)-9-(methylthio)-5-oxobenzo[b][1,8]naphthyridin-10(5H)-yl)acetate] | < 20 | D (“D” > 7° C.) | > 50
15 | CCOc1c(Cl)ccc2c(=O)c3ccc(C(C)=O)nc3n(CC(=O)O)c12 [Compound 31, sodium 2-(2-acetyl-8-chloro-9-ethoxy-5-oxobenzo[b][1,8]naphthyridin-10(5H)-yl)acetate] | 100 to 300 | C (“C” = 2-7° C.) | > 50
16 | CSc1c(Cl)ccc2c(=O)c3ccc(C(C)=O)nc3n(CC(=O)O)c12 [Compound 32, sodium 2-(2-acetyl-8-chloro-9-(methylthio)-5-oxobenzo[b][1,8]naphthyridin-10(5H)-yl)acetate] | 100 to 300 | C (“C” = 2-7° C.) | > 50
17 | CCOc1c(Cl)ccc2c(=O)c3ccc(N(C)CC4CCOCC4)nc3n(CC(=O)O)c12 [Compound 33, 2-(8-chloro-9-ethoxy-2-(methyl((tetrahydro-2H-pyran-4-yl)methyl)amino)-5-oxobenzo[b][1,8]naphthyridin-10(5H)-yl)acetic acid] | 20 to 100 | D (“D” > 7° C.) | > 50
